Laboratory results from article PMC5107916, “Quantitative fluorescence spectroscopy and flow cytometry analyses of cell-penetrating peptides internalization pathways: optimization, pitfalls, comparison with mass spectrometry quantification” (Scientific Reports, 2016).
Like-named read-outs stand apart in the source and are kept apart here.

Key:
[1] = tested on: sialic acid deficient CHO-lec2 cells (SA^deficient); conditions: fluorometry of lysate (50 mM Tris pH 7.4, 1 M NaCl, 1% NP40, sonicated), ex 494 nm, calibration curve, 10^6 cells, 7.5 μM peptide in DMEM, 60 min, mean ± spread, n in cell; for 4 °C - INTERNALIZED, SA^deficient (FLUOROMETRY): pronase digestion; for 37 °C - INTERNALIZED, SA^deficient (FLUOROMETRY): trypsin digestion
Experimental: (§1) To quantify CPP internalization in cells, we kept the conditions of sample preparation for the measurement of the quantity of internalized and cell-associated (membrane-bound plus internalized) fluorescent peptides previously optimized for a MALDI-TOF MS based protocol, and illustrated in Fig. 3. Briefly, one million adherent cells were incubated with CF-CPP for the indicated time and temperature. […] Cells were then washed, lysed, sonicated and the lysate was cleared by centrifugation. The amount of internalized peptide was quantified by direct measurement of the fluorescence remaining in the supernatant. To evaluate the quantity of cell-associated (membrane-bound and internalized) peptide, the proteolytic step was omitted. A calibration curve was fitted from the fluorescence intensity of definite amounts of the same peptide in cell lysates ran in parallel for each experiment (Fig. 3). Comparison of the fluorescence intensity between the samples and the calibration curve permitted the absolute quantification of internalized and cell-associated peptides.
(§2) Figure 4 Quantification by fluorometry of (A) internalized and (B) membrane-bound CF-Penetratin in WT, GAG^deficient and SA^deficient CHO cells. One million cells were incubated with 2.5 or 7.5 μM CF-Penetratin in DMEM for 60 min at 37 °C or 4 °C. To measure the total cell-associated peptide (membrane-bound plus internalized), cells were washed and lysed in a buffer (50 mM Tris pH 7.4, 1 M NaCl, 1% Nonidet P40), sonicated and centrifuged 10 min at 16,000 g. To obtain the internalized peptide, the membrane-bound peptide was digested with 0.05% trypsin/EDTA (37 °C) or pronase (4 °C). After washes, cells were lysed, sonicated and centrifuged. To calculate the amount of internalized and membrane bound cell peptide, we compare the fluorescence intensity (excitation at 494 nm) to the calibration curve obtained from parallel experiments (see Fig. 3). Error bars correspond to standard errors obtained from n = 4 independent experiments for each experimental condition. Intracellular concentrations (μM) were calculated from the mean volume of one CHO cell (assimilated to a sphere of 10–15 μm diameter) being 1 pL: picomoles in 1 μL (10^6 cells) thus correspond to μM concentrations.
(§3) Wild type Chinese Hamster Ovary CHO-K1 cells (WT), xylose-transferase- or GAG-deficient CHO-pgsA745 cells (GAG^deficient) and sialic acid deficient CHO-lec2 cells (SA^deficient) (ATCC, LGC Standards S.a.r.l. - France) were cultured in F12 growth medium (DMEM-F12) supplemented with 10% fetal calf serum (FCS), penicillin (100,000 IU/L), streptomycin (100,000 IU/L), and amphotericin B (1 mg/L) in a humidified atmosphere containing 5% CO2 at 37 °C.
(§4) One million cells were incubated one hour at 37 °C or 4 °C with CF-Penetratin (2.5 μM and 7.5 μM), Biotin-(CF)Penetratin, CF-Arg9 and CF-TAT (7.5 μM) in 1 mL DMEM.
(§5) To access internalized peptides, after washing cells with HBSS, (0.05%) 500 μL trypsin/EDTA (37 °C, 5 min) or (0.05%) pronase (4 °C, 10 min) was added for 5 min to hydrolyze the remaining extracellular and the membrane-bound peptide and to detach cells. After addition of enzyme inhibitors (100 μL (one Complete Mini tablet, Roche, in 2.5 mL PBS) mixed with 100 μL bovine serum albumin (1 mg/mL), cells were transferred into a microtube, centrifuged, washed with 1 mL 50 mM Tris buffer pH 7.4, 0.1% BSA, and lysed in 200 μL 50 mM Tris pH 7.4, 1 M NaCl, 1% NP40. The samples were then sonicated for 30 min and centrifuged 10 min at 16,000 g.
(§6) To obtain the value of the total cell-associated peptide (internalized and membrane-bound species), after washing cells with HBSS, cells were directly lysed in 50 mM Tris pH 7.4, 1 M NaCl, 1% NP40. The samples were then sonicated for 30 min and centrifuged 10 min at 16,000 g.

[2] = tested on: GAG-deficient CHO-pgsA745 cells (GAG^deficient); conditions: fluorometry of lysate (50 mM Tris pH 7.4, 1 M NaCl, 1% NP40, sonicated), ex 494 nm, calibration curve, 10^6 cells, 7.5 μM peptide in DMEM, 60 min, mean ± spread, n in cell; for 4 °C - INTERNALIZED, GAG^deficient (FLUOROMETRY): pronase digestion; for 37 °C - INTERNALIZED, GAG^deficient (FLUOROMETRY): trypsin digestion
Experimental: as §1, §2, §3, §4, §5, §6

CHO cells [3] = tested on: CHO cells
Experimental: We examined the impact of the concentration of Trypan Blue on cell-associated fluorescence compared to control conditions in the absence of Trypan Blue. Cells were incubated with CF-Penetratin. After washings, different concentrations of Trypan Blue were added before cytometry analysis. […] We next examined the quenching ability of Trypan Blue on increasing CF-Penetratin concentrations.
Figure 7 Quenching assays of membrane-bound fluorescence for flow cytometry internalization quantification. (A) Fluorescence quenching according to Trypan Blue quantity (% in g for 100 mL). […] After washing with cold PBS, cells were analyzed in the absence or the presence of Trypan Blue. Lower panel: Stern-Volmer plot. (B) Quenching of membrane fluorescence was assayed with various experimental conditions: 0.2% Trypan Blue, 0.01% trypsin (5 min, 37 °C), 0.5 mg/mL heparin (3 times 5 min, 37 °C). 20,000 events were recorded for each experimental condition. Data were normalized to 100% fluorescence in the absence of Trypan Blue.
Cells were dissociated with 0.5 mM EDTA in PBS (5 min at 37 °C), centrifuged at 800 g, and suspended in DMEM culture medium. […] To optimize fluorescence quenching of the membrane-bound fluorescein, the cell suspension was treated with different concentrations of Trypan Blue. […] 20,000 events were recorded for every experimental conditions.

[4] = tested on: Wild type Chinese Hamster Ovary CHO-K1 cells (WT); experiment: Fluorometry quantification of internalized CF-peptide in cell lysates; format: cell-based; conditions: for 4 °C - INTERNALIZED, WT (FLUOROMETRY) / 37 °C - INTERNALIZED, WT (FLUOROMETRY): fluorometry of lysate (50 mM Tris pH 7.4, 1 M NaCl, 1% NP40, sonicated), ex 494 nm, calibration curve, 10^6 cells, 7.5 μM peptide in DMEM, 60 min, mean ± spread, n in cell; for 4 °C - INTERNALIZED, WT (FLUOROMETRY): 4 °C (translocation only), 0.05% pronase digestion; for 37 °C - INTERNALIZED, WT (FLUOROMETRY): 0.05% trypsin/EDTA digestion, μM from 1 pL cell volume
Experimental: as §1, §2, §3, §4, §5, §6

[5] = tested on: sialic acid deficient CHO-lec2 cells (SA^deficient); conditions: MALDI-TOF MS of lysate, 2H-peptide internal standard, 10^6 adherent cells, 7.5 μM extracellular peptide, 1 h, ref [19], cited from earlier work
[6] = tested on: Wild type Chinese Hamster Ovary CHO-K1 cells (WT); conditions: MALDI-TOF MS of lysate, 2H-peptide internal standard, 10^6 adherent cells, 7.5 μM extracellular peptide, 1 h, ref [19], cited from earlier work
[7] = tested on: GAG-deficient CHO-pgsA745 cells (GAG^deficient); conditions: MALDI-TOF MS of lysate, 2H-peptide internal standard, 10^6 adherent cells, 7.5 μM extracellular peptide, 1 h, ref [19], cited from earlier work
[8] = tested on: Wild type Chinese Hamster Ovary CHO-K1 cells (WT); conditions: 7.5 μM extracellular peptide
Experimental: as §1, §3
(§7) The protocol has been fully described elsewhere by Burlina et al.[14][16]. Briefly, one million adherent cells were incubated one hour with biotin-labeled peptides (^1H-CPP). After washing with HBSS, 0.05% trypsin/EDTA (37 °C, 5 min) or 0.05% pronase (4 °C, 10 min) digestion, cells were lysed in a solution containing a relevant quantity of the deuterated form (^2H-CPP) of the same peptide sequence, which is used as internal standard to quantify the internalized amount of ^1H-CPP. MALDI-TOF MS analyses were done using cyano-4-hydroxy-cinnamic acid (CHCA), for Biotin-Penetratin or sinapinic acid for Biotin-(CF)Penetratin. Unless indicated, experiments were performed in triplicates and repeated at least three times independently.

[9] = tested on: GAG-deficient CHO-pgsA745 cells (GAG^deficient); conditions: MALDI-TOF MS (sinapinic acid matrix), 2H-peptide internal standard, 10^6 adherent cells, 7.5 μM extracellular peptide, 1 h, trypsin digestion
Experimental: as §1, §3, §7

CHO cells [10] = experiment: Cytotoxicity, Cell Counting Kit 8 (CCK-8); format: cell-based, Chinese Hamster; conditions: 2 × 10^4 CHO cells/well, peptide 1; 5; 10 and 20 μM, 60 min, then 3 h 10% CCK-8, absorbance 450 nm
Experimental: Cytotoxicity was determined with the Cell Counting Kit 8 (CCK-8) from Dojindo Molecular Technologies. This colorimetric assay allows to measure the viability of cells. 96-well plates were inoculated with 100 μL/well of a suspension of CHO cells (2.10^4 cells/well). […] After washing, the cells were incubated with 100 μL of 10% CCK-8 in DMEM for 3 hours and the absorbance was measured at 450 nm with a microplate reader (Polarstar Optima). Controls corresponded to untreated cells (negative control, 100% viability) and cells treated with 0.2% of Triton X-100 (positive control, 0% viability). Supplementary Figure S1. […] A 96-well plate was inoculated with 100 µL/well of a suspension of CHO cells (2 × 10^4 cells/well). […] Controls corresponded to untreated cells (negative control, 100% viability) and cells treated with 0.2% of Triton X-100 (positive control, 0% viability).

[11] = 37 °C, trypsin digestion, μM from 1 pL cell volume

Substance: Carboxyfluorescein-Apa-RQIKIWFQNRRMKWKK-NH2 [CF-PEN, carboxyfluorescein-labelled Penetratin cell-penetrating peptide]
- 4 °C - INTERNALIZED, SA^deficient (FLUOROMETRY) [1]: 1.0 ± 0.1 (n = 4) μM
- 4 °C - INTERNALIZED, SA^deficient (FLUOROMETRY) ([1]; listed as CF-Penetratin): 1 to 2 µM
- 37 °C - INTERNALIZED, SA^deficient (FLUOROMETRY) [1]: 33 ± 5.3 (n = 4) μM
- 4 °C - INTERNALIZED, GAG^deficient (FLUOROMETRY) [2]: 1.7 ± 0.8 (n = 3) μM
- 4 °C - INTERNALIZED, GAG^deficient (FLUOROMETRY) ([2]; listed as CF-Penetratin): 1 to 2 µM
- 37 °C - INTERNALIZED, GAG^deficient (FLUOROMETRY) [2]: 7.0 ± 0.5 (n = 4) μM
- difference between total cell-associated and internalized fluorescence signals by flow cytometry (CHO cells [3]): 1.25 to 2 folds
- 4 °C - INTERNALIZED, WT (FLUOROMETRY) [4]: 2.4 ± 0.4 (n = 3) μM
- 4 °C - INTERNALIZED, WT (FLUOROMETRY) ([4]; listed as CF-Penetratin): 1 to 2 µM
- 37 °C - INTERNALIZED, WT (FLUOROMETRY) [4]: 22 ± 1.3 (n = 11) μM
- ratio of total cell-associated to internalized peptide by fluorometry ([4]; fluorometry of lysates, cell line not given): ~100 folds

Substance: Biotin-GGGGRQIKIWFQNRRMKWKK-NH2 [Biotin-PEN]
- 4 °C - INTERNALIZED, SA^deficient (MALDI-TOF MS) ([5]; 4 °C, pronase digestion): 1.0 ± 0.2 µM
- 37 °C - INTERNALIZED, SA^deficient (MALDI-TOF MS) [5, 11]: 6.0 ± 1.0 µM
- 4 °C - INTERNALIZED, WT (MALDI-TOF MS) ([6]; 4 °C (translocation only), 0.05% pronase digestion): 0.9 ± 0.2 µM
- 37 °C - INTERNALIZED, WT (MALDI-TOF MS) ([6]; 37 °C, membrane-bound peptide digested with 0.05% trypsin/EDTA, μM from 1 pL cell volume): 5.0 ± 0.5 µM
- 4 °C - INTERNALIZED, GAG^deficient (MALDI-TOF MS) ([7]; 4 °C, pronase digestion): 0.6 ± 0.1 µM
- 37 °C - INTERNALIZED, GAG^deficient (MALDI-TOF MS) [7, 11]: 1.9 ± 0.2 µM

Substance: Biotin-GGGG(εCF)KRQIKIWFQNRRMKWKK-NH2 [Biotin-(CF)PEN, doubly labeled fluorescent and biotinylated Penetratin analogue]
- 4 °C - INTERNALIZED, WT (MALDI-TOF MS) ([8]; MALDI-TOF MS (sinapinic acid matrix), 2H-peptide internal standard, 10^6 adherent cells, 1 h, 4 °C, pronase digestion): Not detectable
- 37 °C - INTERNALIZED, WT (MALDI-TOF MS) ([8]; MALDI-TOF MS (sinapinic acid matrix), 2H-peptide internal standard, 10^6 adherent cells, 1 h, 37 °C, trypsin digestion, μM from 1 pL cell volume, mean ± spread, n in cell): 8.7 ± 1.1 (n = 19) μM
- intracellular degradation of the internalized peptide, from mass spectra ([8]; MALDI-TOF MS of cell lysate, one-hour incubation, 37 °C): not quickly degraded
- 37 °C - INTERNALIZED, GAG^deficient (MALDI-TOF MS) [9]: Not detectable
- 37 °C - INTERNALIZED, SA^deficient (FLUOROMETRY) [1]: 6.9 ± 1.8 (n = 3) μM
- 37 °C - INTERNALIZED, GAG^deficient (FLUOROMETRY) [2]: 1.1 ± 0.1 (n = 4) μM
- 4 °C - INTERNALIZED, WT (FLUOROMETRY) [4]: 1.5 ± 0.1 (n = 10) μM
- 37 °C - INTERNALIZED, WT (FLUOROMETRY) [4]: 9.8 ±1.0 (n = 14) μM
- cytotoxicity (cell viability, CCK-8) (CHO cells [10]): none of the peptides used in this study was cytotoxic
